# Assay results published in patent publication US20210283078A1, “Treatment of cholestatic pruritus” (CymaBay Therapeutics, Inc., priority 2017, published 2021).
# Read-outs that look alike come from different tables or passages of the source.
# Key:
# [1] = system: PBC patients with pruritus; settings: Phase 2a; cited from earlier work
# PBC patients = settings: 12-month trial, cited from earlier work
# adult subjects with PBC [2] = test: Example 1: High dose trial in PBC (NCT02609048); assay type: in vivo, human; settings: for cases of asymptomatic increases in transaminases: reversible on cessation, no elevation of total bilirubin
# From the text: (§1) The trial subjects were adult, male or female, with a diagnosis of PBC by at least two of the following three criteria: (a) a history of alkaline phosphatase (ALP) above the upper limit of normal (ULN) for at least six months, (b) positive anti-mitochondrial antibody titers >1/40 on immunofluorescence or M2 positive by enzyme linked immunosorbent assay or positive PBC-specific antinuclear antibodies, and (c) documented liver biopsy result consistent with PBC, on a stable and recommended dose of UDCA for the past twelve months, and ALP≥1.67×ULN. Exclusion criteria included AST or ALT≥3×ULN, total bilirubin (TBIL)≥2×ULN, autoimmune hepatitis or a history of chronic viral hepatitis, PSC, the current use of fibrates or simvastatin, the use of colchicine, methotrexate, azathioprine, or systemic steroids in the previous two months, the use of an experimental treatment for PBC, and the use of an experimental or unapproved immunosuppressant. […] Pruritus was assessed using VAS, 5-D itch, and PBC-40. During the study, three cases of asymptomatic increases in transaminases were observed (two in the 200 mg and one in the 50 mg groups): all were reversible on cessation of treatment and were not accompanied by elevation of total bilirubin. Since the study had already shown a clear efficacy signal, the study was discontinued.
# [3] = system: adult subjects with PSC, PFIC, or AS; test: Example 3: treatment of subjects with hepatobiliary disease associated with pruritus; assay type: in vivo, human; settings: 1, 2, 5, and 10 mg/day oral
# Method: Subjects are permitted their usual other medications, including UDCA. […] At each visit, the subjects are assessed for cholestatic symptoms and biomarkers, and assessed for cholestatic pruritus. The subjects also maintain health diaries, which are reviewed at each visit.
# adult subjects with PBC [4] = test: Example 2: Low-dose trial in PBC (NCT02955602), pruritus by VAS; assay type: in vivo, human; settings: for baseline median VAS: subjects with VAS>0 at baseline; for median change in VAS: week 26
# From the text: as §1
# At 12 weeks, the results of pruritus assessment by VAS (0-100 scale) were as follows:
# 37 subjects with VAS>0 at baseline were analysed in the interim analysis at 26 weeks: 18 subjects in the 5/10 mg group and 19 in the 10 mg group. Baseline median VAS were 15 (range 1-68) and 50 (range 5-90) in the 5/10 mg and 10 mg groups, respectively. At week 26, median changes in VAS were −50% and −55% in the 5/10 mg and 10 mg groups, respectively.
# [5] = system: patients with cholestatic pruritus; settings: several studies; cited from earlier work
# [6] = system: patients with cholestatic pruritus; settings: more recent study; cited from earlier work
# [7] = system: patients with cholestatic pruritus; settings: two studies; cited from earlier work
compound,measurement,setting,value
CCCC[C@]1(CC)CS(=O)(=O)c2cc(CNC(CC(=O)O)CC(=O)O)c(OC)cc2[C@@H](c2ccccc2)N1 [GSK2330672],"diarrhea (most common side effect), subjects",[1],33%
same,"reductions in itch scores (1-10 numerical rating scale, PBC-40 itch domain score, 5-D itch scale) vs placebo",[1],significantly greater reductions in itch scores
"CC[C@H]1[C@@H](O)[C@@H]2[C@H](CC[C@]3(C)[C@@H]([C@H](C)CCC(=O)O)CC[C@@H]23)[C@@]2(C)CC[C@@H](O)C[C@@H]12 [OCALIVA, 6α-ethylchenodeoxycholic acid]","severe pruritus, patients",PBC patients; 10 mg arm,23%
same,"severe pruritus, patients",PBC patients; titration arm,19%
"CCO[C@H](COc1ccc(C(F)(F)F)cc1)CSc1ccc(OCC(=O)O)c(C)c1 [Seladelpar, [4-({(2R)-2-ethoxy-3-[4-(trifluoromethyl)phenoxy]propyl}sulfanyl)-2-methylphenoxy]acetic acid]",cases of asymptomatic increases in transaminases,adult subjects with PBC [2]; 50 mg/day oral,one
same,cases of asymptomatic increases in transaminases,adult subjects with PBC [2]; 200 mg/day oral,two
same,adverse events of pruritus on treatment,adult subjects with PBC [2]; 50 or 200 mg/day oral,no adverse events of pruritus were reported
same,anti-cholestatic effect (primary endpoint ALP),"adult subjects with PBC [2]; 50 or 200 mg/day oral, at least two weeks of treatment",a potent anti-cholestatic effect was observed
same,improvement in disease (decrease in ALP and GGT),[3],improvement in their disease
same,effect on cholestatic pruritus associated with PBC,"adult subjects with PBC [4]; 5 mg/day and 10 mg/day, 12 weeks",significantly reduced the cholestatic pruritus
same,"pruritus VAS (0-100 scale), median","adult subjects with PBC [4]; 5 mg/day, Visit 2 (Day 1)",8
same,"pruritus VAS (0-100 scale), median","adult subjects with PBC [4]; 5 mg/day, Visit 3 (Week 1)",10
same,"pruritus VAS (0-100 scale), median","adult subjects with PBC [4]; 5 mg/day, Visit 4 (Week 2)",9
same,"pruritus VAS (0-100 scale), median","adult subjects with PBC [4]; 5 mg/day, Visit 5 (Week 4)",10
same,"pruritus VAS (0-100 scale), median","adult subjects with PBC [4]; 5 mg/day, Visit 6 (Week 6)",5
same,"pruritus VAS (0-100 scale), median","adult subjects with PBC [4]; 5 mg/day, Visit 7 (Week 8)",7
same,"pruritus VAS (0-100 scale), median","adult subjects with PBC [4]; 5 mg/day, Visit 8 (Week 12)",3
same,baseline median VAS,"adult subjects with PBC [4]; 10 mg group, n=19",50 (range 5-90)
same,median change in VAS,adult subjects with PBC [4]; 10 mg group,−55%
same,"pruritus VAS (0-100 scale), median","adult subjects with PBC [4]; 10 mg/day, Visit 2 (Day 1)",25
same,"pruritus VAS (0-100 scale), median","adult subjects with PBC [4]; 10 mg/day, Visit 3 (Week 1)",13
same,"pruritus VAS (0-100 scale), median","adult subjects with PBC [4]; 10 mg/day, Visit 4 (Week 2)",30
same,"pruritus VAS (0-100 scale), median","adult subjects with PBC [4]; 10 mg/day, Visit 5 (Week 4)",20
same,"pruritus VAS (0-100 scale), median","adult subjects with PBC [4]; 10 mg/day, Visit 6 (Week 6)",10
same,"pruritus VAS (0-100 scale), median","adult subjects with PBC [4]; 10 mg/day, Visit 7 (Week 8)",15
same,"pruritus VAS (0-100 scale), median","adult subjects with PBC [4]; 10 mg/day, Visit 8 (Week 12)",6
same,subjects discontinued for increased pruritus possibly related to PBC,"adult subjects with PBC [4]; 10 mg/day, after five days, subject entered with intense pruritus",One
same,baseline median VAS,"adult subjects with PBC [4]; 5/10 mg group, n=18",15 (range 1-68)
same,median change in VAS,adult subjects with PBC [4]; 5/10 mg group,−50%
same,discontinuations related to seladelpar,adult subjects with PBC [4]; at 26 weeks,no discontinuations related to seladelpar
same,serious adverse events due to pruritus,adult subjects with PBC [4]; at 26 weeks,no serious adverse events due to pruritus
same,pruritus reported as an adverse event,"adult subjects with PBC [4]; at 26 weeks, 24/119 subjects",20%
same,"effect on cholestasis, transaminases, LDL-cholesterol, inflammation","adult subjects with PBC [4]; doses as low as 5 mg/day, at 12 weeks","reversed cholestasis, decreased transaminases, decreased LDL-cholesterol, and reduced inflammation"
C=C1CC[C@@]2(O)[C@H]3Cc4ccc(O)c5c4[C@@]2(CCN3CC2CC2)[C@H]1O5 [nalmefene],reduction of cholestatic pruritus vs control intervention,[5],more likely to reduce cholestatic pruritus than the control intervention
C=CCN1CC[C@]23c4c5ccc(O)c4O[C@H]2C(=O)CC[C@@]3(O)[C@H]1C5 [naloxone],reduction of cholestatic pruritus vs control intervention,[5],more likely to reduce cholestatic pruritus than the control intervention
O=C1CC[C@@]2(O)[C@H]3Cc4ccc(O)c5c4[C@@]2(CCN3CC2CC2)[C@H]1O5 [naltrexone],reduction of cholestatic pruritus vs control intervention,[5],more likely to reduce cholestatic pruritus than the control intervention
CO[C@H]1/C=C/O[C@@]2(C)Oc3c(C)c(O)c4c(O)c(c(/C=N/N5CCN(C)CC5)c(O)c4c3C2=O)NC(=O)/C(C)=C\C=C\[C@H](C)[C@H](O)[C@@H](C)[C@@H](O)[C@@H](C)[C@H](OC(C)=O)[C@@H]1C [rifampicin],incidence of significant hepatitis,[6],7.3%
CN[C@H]1CC[C@@H](c2ccc(Cl)c(Cl)c2)c2ccccc21 [sertraline],tolerability and reduction of itch intensity,[7],well tolerated and moderately effective
